Assay results: the OPERA property sets (Mansouri et al. 2018)
Converted amounts (≈) assume the structure as drawn.

CCOP(=O)(OCC)Oc1ccc([N+](=O)[O-])cc1
solubility (20 °C): 8720 µM (≈ 2400 µg/mL)

CCOP(=S)(OCC)SCS(=O)CC (stereo not given)
solubility (20 °C): 28900 µM (≈ 8000 µg/mL)

CCOP(=S)(OCC)SCCS(=O)(=O)CC
solubility (20 °C): 2880 µM (≈ 883 µg/mL)

CCOP(=S)(OCC)SCS(=O)C(C)(C)C (stereo not given)
solubility (20 °C): 3610 µM (≈ 1100 µg/mL)

CCOP(=S)(OCC)SCCSCC
solubility (20 °C): 59.4 µM (≈ 16.3 µg/mL)

COP(=S)(OC)Oc1cc(Cl)c(Br)cc1Cl
solubility (20 °C): 0.82 µM (≈ 0.3 µg/mL)

CNC(=O)ON=CC(C)(C)SC
solubility (25 °C): 31700 µM (≈ 6030 µg/mL)

CCOP(=S)(OCC)SCS(=O)(=O)CC
logP: 1.99
solubility (20 °C): 2950 µM (≈ 861 µg/mL)

CCOP(=S)(OCC)Oc1ccc(S(C)(=O)=O)cc1
solubility (20 °C): 2300 µM (≈ 746 µg/mL)
